Experiments:
Type in all cases: in vivo
Set-up in all cases: key: 5=81-100%; 4=61-80%; 3=41-60%; 2=21-40%; 1=1-20%; 0=no damage to the plant; -=not tested
[1] = tested on: Amaranthus palmeri (AMAPA); test: Pre-emergence test, herbicidal damage; settings: 1000 g/ha unless otherwise stated, evaluated after 13 days, five-point scale
[2] = tested on: Amaranthus retoflexus (AMARE); test: Pre-emergence test, herbicidal damage; settings: 1000 g/ha unless otherwise stated, evaluated after 13 days, five-point scale
[3] = tested on: Echinochloa crus-galli (ECHCG); test: Pre-emergence test, herbicidal damage; settings: 1000 g/ha unless otherwise stated, evaluated after 13 days, five-point scale
[4] = tested on: Zea mays (ZEAMX); test: Pre-emergence test, herbicidal damage; settings: 1000 g/ha unless otherwise stated, evaluated after 13 days, five-point scale
[5] = tested on: Ipomoea hederacea (IPOHE); test: Pre-emergence test, herbicidal damage; settings: 1000 g/ha unless otherwise stated, evaluated after 13 days, five-point scale
[6] = tested on: Setaria faberi (SETFA); test: Pre-emergence test, herbicidal damage; settings: 1000 g/ha unless otherwise stated, evaluated after 13 days, five-point scale
[7] = tested on: Amaranthus palmeri (AMAPA); test: Post-emergence test, herbicidal damage; settings: sprayed after 8 days cultivation, 1000 g/ha unless otherwise stated, evaluated after 13 days, five-point scale
Outline: (§1)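 Seeds are sown in standard soil under controlled glasshouse conditions (24 °C day, 16 °C night, 14 h light, 65% humidity) and sprayed with compound at 1000 g/ha in aqueous acetone containing 0.5% Tween 20. Thirteen days later, percentage damage is rated on a 0–5 scale.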

[8] = tested on: Amaranthus retoflexus (AMARE); test: Post-emergence test, herbicidal damage; settings: sprayed after 8 days cultivation, 1000 g/ha unless otherwise stated, evaluated after 13 days, five-point scale
Outline: as §1

[9] = tested on: Echinochloa crus-galli (ECHCG); test: Post-emergence test, herbicidal damage; settings: sprayed after 8 days cultivation, 1000 g/ha unless otherwise stated, evaluated after 13 days, five-point scale
Outline: as §1

[10] = tested on: Ipomoea hederacea (IPOHE); test: Post-emergence test, herbicidal damage; settings: sprayed after 8 days cultivation, 1000 g/ha unless otherwise stated, evaluated after 13 days, five-point scale
Outline: as §1

[11] = tested on: Setaria faberi (SETFA); test: Post-emergence test, herbicidal damage; settings: sprayed after 8 days cultivation, 1000 g/ha unless otherwise stated, evaluated after 13 days, five-point scale
Outline: as §1

[12] = tested on: Zea mays (ZEAMX); test: Post-emergence test, herbicidal damage; settings: sprayed after 8 days cultivation, 1000 g/ha unless otherwise stated, evaluated after 13 days, five-point scale
Outline: as §1

Cc1c(C2CC2)c(-c2ccc(Cl)c(Cl)c2)c(C(=O)O)c(=O)n1-c1ccc(F)cc1F [Compound 37, 5-cyclopropyl-4-(3,4-dichlorophenyl)-1-(2,4-difluorophenyl)-6-methyl-2-oxo-pyridine-3-carboxylic acid]
1 (1=1-20%): percentage damage caused to the plant, ZEAMX [4] | percentage damage caused to the plant, IPOHE [5] | percentage damage caused to the plant, SEFTA [6] | percentage damage caused to the plant, ECHCG [9] | percentage damage caused to the plant, SEFTA [11] | percentage damage caused to the plant, ZEAMX [12]
4 (4=61-80%): percentage damage caused to the plant, AMAPA [1] | percentage damage caused to the plant, AMAPA [7]
2 (2=21-40%): percentage damage caused to the plant, ECHCG [3] | percentage damage caused to the plant, IPOHE [10]
3 (3=41-60%): percentage damage caused to the plant, AMARE [2] | percentage damage caused to the plant, AMARE [8]

Cc1c(-c2ccc(Cl)c(Cl)c2)c(C(=O)O)c(=O)n(C)c1C [Compound 12, 4-(3,4-dichlorophenyl)-1,5,6-trimethyl-2-oxo-pyridine-3-carboxylic acid]
1 (1=1-20%): percentage damage caused to the plant, AMAPA [1] | percentage damage caused to the plant, ECHCG [3] | percentage damage caused to the plant, AMARE [8] | percentage damage caused to the plant, ECHCG [9] | percentage damage caused to the plant, IPOHE [10] | percentage damage caused to the plant, SEFTA [11]
2 (2=21-40%): percentage damage caused to the plant, SEFTA [6] | percentage damage caused to the plant, AMAPA [7]
0: percentage damage caused to the plant, AMARE [2] | percentage damage caused to the plant, ZEAMX [4] | percentage damage caused to the plant, IPOHE [5] | percentage damage caused to the plant, ZEAMX [12]

Cc1cc(-c2ccc(Cl)c(Cl)c2)c(C(=O)O)c(=O)n1-c1cccc(C(F)(F)F)c1F [Compound 17, 4-(3,4-dichlorophenyl)-1-[2-fluoro-3-(trifluoromethyl)phenyl]-6-methyl-2-oxo-pyridine-3-carboxylic acid]
0: percentage damage caused to the plant, AMAPA [1] | percentage damage caused to the plant, AMARE [2] | percentage damage caused to the plant, ECHCG [3] | percentage damage caused to the plant, ZEAMX [4] | percentage damage caused to the plant, IPOHE [5] | percentage damage caused to the plant, SEFTA [6] | percentage damage caused to the plant, ECHCG [9] | percentage damage caused to the plant, IPOHE [10] | percentage damage caused to the plant, ZEAMX [12]
2 (2=21-40%): percentage damage caused to the plant, AMAPA [7]
1 (1=1-20%): percentage damage caused to the plant, AMARE [8] | percentage damage caused to the plant, SEFTA [11]

Cc1[nH]c(=O)c(C(=O)O)c(-c2ccc(Cl)c(Cl)c2)c1Cl [Compound 2, 5-chloro-4-(3,4-dichlorophenyl)-6-methyl-2-oxo-1H-pyridine-3-carboxylic acid]
0: percentage damage caused to the plant, AMAPA [1] | percentage damage caused to the plant, AMARE [2] | percentage damage caused to the plant, ECHCG [3] | percentage damage caused to the plant, ZEAMX [4] | percentage damage caused to the plant, IPOHE [5] | percentage damage caused to the plant, SEFTA [6] | percentage damage caused to the plant, AMAPA [7] | percentage damage caused to the plant, AMARE [8] | percentage damage caused to the plant, ECHCG [9] | percentage damage caused to the plant, IPOHE [10] | percentage damage caused to the plant, SEFTA [11] | percentage damage caused to the plant, ZEAMX [12]

Cc1c(Br)c(-c2ccc(Cl)c(Cl)c2)c(C(=O)O)c(=O)n1C [Compound 5, 5-bromo-4-(3,4-dichlorophenyl)-1,6-dimethyl-2-oxo-pyridine-3-carboxylic acid]
0: percentage damage caused to the plant, AMAPA [1] | percentage damage caused to the plant, AMARE [2] | percentage damage caused to the plant, ECHCG [3] | percentage damage caused to the plant, ZEAMX [4] | percentage damage caused to the plant, IPOHE [5] | percentage damage caused to the plant, SEFTA [6] | percentage damage caused to the plant, ECHCG [9] | percentage damage caused to the plant, SEFTA [11]
1 (1=1-20%): percentage damage caused to the plant, AMAPA [7] | percentage damage caused to the plant, AMARE [8] | percentage damage caused to the plant, IPOHE [10] | percentage damage caused to the plant, ZEAMX [12]

Cc1c(-c2ccc(Cl)c(Cl)c2)c(C(=O)O)c(=O)n(-c2ccc(Cl)cc2F)c1C [Compound 26, 1-(4-chloro-2-fluoro-phenyl)-4-(3,4-dichlorophenyl)-5,6-dimethyl-2-oxo-pyridine-3-carboxylic acid]
1 (1=1-20%): percentage damage caused to the plant, ZEAMX [4] | percentage damage caused to the plant, IPOHE [5] | percentage damage caused to the plant, SEFTA [6] | percentage damage caused to the plant, ECHCG [9] | percentage damage caused to the plant, SEFTA [11] | percentage damage caused to the plant, ZEAMX [12]
0: percentage damage caused to the plant, ECHCG [3] | percentage damage caused to the plant, IPOHE [10]
3 (3=41-60%): percentage damage caused to the plant, AMAPA [1] | percentage damage caused to the plant, AMARE [2] | percentage damage caused to the plant, AMAPA [7] | percentage damage caused to the plant, AMARE [8]

Cc1cc(-c2ccc(Cl)c(Cl)c2)c(C(=O)O)c(=O)n1-c1ncc(Cl)cc1F [Compound 18, 1-(5-chloro-3-fluoro-2-pyridyl)-4-(3,4-dichlorophenyl)-6-methyl-2-oxo-pyridine-3-carboxylic acid]
1 (1=1-20%): percentage damage caused to the plant, AMAPA [7] | percentage damage caused to the plant, ECHCG [9] | percentage damage caused to the plant, IPOHE [10] | percentage damage caused to the plant, ZEAMX [12]
0: percentage damage caused to the plant, AMAPA [1] | percentage damage caused to the plant, AMARE [2] | percentage damage caused to the plant, ECHCG [3] | percentage damage caused to the plant, ZEAMX [4] | percentage damage caused to the plant, IPOHE [5] | percentage damage caused to the plant, SEFTA [6] | percentage damage caused to the plant, AMARE [8] | percentage damage caused to the plant, SEFTA [11]

CCc1c(C)[nH]c(=O)c(C(=O)O)c1-c1ccc(Cl)c(Cl)c1 [Compound 10, 4-(3,4-dichlorophenyl)-5-ethyl-6-methyl-2-oxo-1H-pyridine-3-carboxylic acid]
0: percentage damage caused to the plant, AMAPA [1] | percentage damage caused to the plant, AMARE [2] | percentage damage caused to the plant, ECHCG [3] | percentage damage caused to the plant, ZEAMX [4] | percentage damage caused to the plant, IPOHE [5] | percentage damage caused to the plant, SEFTA [6] | percentage damage caused to the plant, AMAPA [7] | percentage damage caused to the plant, AMARE [8] | percentage damage caused to the plant, ECHCG [9] | percentage damage caused to the plant, IPOHE [10] | percentage damage caused to the plant, SEFTA [11] | percentage damage caused to the plant, ZEAMX [12]

Cc1c(Cl)c(-c2ccc(Cl)c(Cl)c2)c(C(=O)O)c(=O)n1-c1ccc(F)cc1 [Compound 20, 5-chloro-4-(3,4-dichlorophenyl)-1-(4-fluorophenyl)-6-methyl-2-oxo-pyridine-3-carboxylic acid]
0: percentage damage caused to the plant, ZEAMX [4]
2 (2=21-40%): percentage damage caused to the plant, SEFTA [6] | percentage damage caused to the plant, ECHCG [9] | percentage damage caused to the plant, IPOHE [10]
4 (4=61-80%): percentage damage caused to the plant, AMARE [2] | percentage damage caused to the plant, AMARE [8] | percentage damage caused to the plant, SEFTA [11] | percentage damage caused to the plant, ZEAMX [12]
1 (1=1-20%): percentage damage caused to the plant, ECHCG [3] | percentage damage caused to the plant, IPOHE [5]
5 (5=81-100%): percentage damage caused to the plant, AMAPA [1] | percentage damage caused to the plant, AMAPA [7]
